This note sets out measurements from PubChem BioAssay (NCI).

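Compound exposure: 48 hours, 5 concentrations, 96-well plates. GI50 marks 50% less growth. Definition used: TGI = concentration required for complete inhibition of growth.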

Among the test systems are P388/ADR leukemia; SNB-78 CNS; P388 leukemia; DLD-1 colon; M19-MEL melanoma; TK-10 renal; OVCAR-4 ovarian; T-47D breast; MDA-MB-435; DU-145 prostate.
Holding throughout (test): NCI tumour cell line growth inhibition, 48 h

As to `Cc1c2cc[n+](Cc3ccc(I)cc3)cc2c(C)c2c1[nH]c1ccccc12`, the TGI in the assay with P388/ADR leukemia is > 25 µM; with SNB-78 CNS it was > 25 µM; in the assay on P388 leukemia it was 558 nM; in the assay with DLD-1 colon it was > 25 µM; in the assay with M19-MEL melanoma, 1.49 µM.

On to `N#C[S-].[La+3].c1ccc(-c2ccccn2)nc1.c1ccc(-c2ccccn2)nc1.c1ccc(-c2ccccn2)nc1`, for which the GI50 was 15700 nM with TK-10 renal; 20400 nM in the assay with OVCAR-4 ovarian; 59.4 µM with SNB-78 CNS; 17.2 µM with DLD-1 colon; 38 µM in the assay on M19-MEL melanoma. The TGI in the assay on TK-10 renal, in the assay with OVCAR-4 ovarian, in the assay with SNB-78 CNS, in the assay on DLD-1 colon and in the assay with M19-MEL melanoma was > 100 µM each time.

As for `O=c1cc(-c2cccc(OC(F)(F)F)c2)[nH]c2ccc(N3CCCC3)cc12`, the TGI in the assay on T-47D breast is > 100 µM; in the assay with MDA-MB-435 it was < 0.1 nM; in the assay on TK-10 renal it was 6.79 µM; in the assay on DU-145 prostate, 177 nM. In the assay on TK-10 renal, the GI50 was 43.1 nM.

With `[CH3][Sn]([CH3])([CH3])[S]C(=S)N1CCOCC1`, the GI50 was 136 nM with P388/ADR leukemia; 818 nM in the assay with OVCAR-4 ovarian; 9.94 µM with SNB-78 CNS; 82 nM in the assay with P388 leukemia; 0.162 µM in the assay on DLD-1 colon; 0.73 µM with M19-MEL melanoma. The TGI with P388/ADR leukemia was 0.902 µM; in the assay on OVCAR-4 ovarian it was 4.21 µM; with SNB-78 CNS, > 100 µM; in the assay on P388 leukemia it was 389 nM; in the assay on DLD-1 colon, 5.54 µM; in the assay with M19-MEL melanoma, 31.7 µM.

As for `CCCCCCCCCCCC1N=C(N)N=C(N)N1c1cccc(Br)c1` (centres undefined), the GI50 is 523 nM in the assay with MDA-MB-435, 1560 nM with TK-10 renal and 1160 nM in the assay on DU-145 prostate. Also, the TGI in the assay on MDA-MB-435 amounted to 1790 nM; with TK-10 renal, 2.94 µM; in the assay on DU-145 prostate, 2420 nM.

Consider `CC1OC(OC2C(O)CC(OC3C(O)CC(OC4CCC5(C)C(CCC6C5CCC5(C)C(C7=CC(=O)OC7)C(O)CC65O)C4)OC3C)OC2C)CC(O)C1O` (centres undefined), for which the TGI in the assay on T-47D breast was 4.72 µM; with MDA-MB-435 it was 1270 nM; with TK-10 renal, 0.787 µM; in the assay on DU-145 prostate it was 236 nM.

Take `O=C(Nc1cccc(-n2ccc3c(NC(=O)c4ccccc4)ncnc32)c1)Nc1ccc(Cl)c(C(F)(F)F)c1`: the GI50 in the assay on T-47D breast is 2610 nM; with MDA-MB-435, 1440 nM; in the assay on TK-10 renal, 2140 nM; with OVCAR-4 ovarian, 2360 nM; in the assay on DU-145 prostate, 4520 nM. Further, the TGI in the assay on T-47D breast turned out to be 9.85 µM; with MDA-MB-435, 5600 nM; in the assay on TK-10 renal, 7.75 µM; with OVCAR-4 ovarian, 8.18 µM; with DU-145 prostate, 11300 nM.

Consider `Brc1ccc2[nH]c3c(C4=NCCC4)nccc3c2c1`, for which the TGI in the assay with P388/ADR leukemia is > 23.8 µM; in the assay with OVCAR-4 ovarian, > 87.7 µM; with SNB-78 CNS, > 100 µM; with P388 leukemia it was > 21700 nM; in the assay with DLD-1 colon it was > 43.4 µM; in the assay with M19-MEL melanoma, 84.4 µM.

As to `Oc1c(Br)cc2c(c1Br)-c1c(c(O)c3c4c1=NCCC=4C=N3)NCC2`, the TGI was 43.2 µM with P388/ADR leukemia; 23.5 µM in the assay with OVCAR-4 ovarian; 13.4 µM with SNB-78 CNS; > 22200 nM in the assay with P388 leukemia; 25 µM in the assay on DLD-1 colon; 8.82 µM in the assay on M19-MEL melanoma.
